Source: patent US20120141983A1, “Quantitative Aggregation Sensors” (priority 2010, published 2012)

Legend:
[1] = biological target: T1, synthetic Aβ42 (Homo sapiens, UniProt P05067); experiment: Inhibition of in vitro aggregation of synthetic Aβ42 by small molecules (ThT fluorescence); type: biochemical; details: 1 μM compound, 25 μM Aβ42, 1 day at 30° C.
T1 construct: a fragment comprising residues 672-713 of Aβ (“Aβ42”); purchased Bachem
Method: (§1) Aβ42, Aβ40, Aβ42F20E and Aβ42E22G peptides (Bachem, Torrance, USA) were disaggregated using Hexafluoro-2-propanol (HFIP, Sigma-Aldrich) following the protocol described elsewhere (C. Goldsbury, et al., 2005, J Mol Biol 352, 282), and aliquoted into low protein binding tubes (Eppendorf).
Effect of small molecule inhibitors of Aβ42 aggregation. 2 mM Aβ42 stock solutions in DMSO) were sonicated for 5 minutes, and diluted to final 25 μM concentration in PBS (Gibco). Small molecules were added to final 1 μM concentration, the final DMSO concentration in all samples and control was kept equal. Samples were incubated for 1 day at 30° C., and tested for Aβ42 aggregation using Thioflaving T (Tht, Sigma-Aldrich) binding monitored by fluorescence (excitation 450 nm/emission 485 nm). Tht was prepared at 5 μM in 20 mM Glycine pH=8 buffer. 10 μl of sample were plated in triplicates in clear bottom non-binding black plates (Corning), and 100 μl of Tht were added. After 5 minutes of incubation at room temperatures, fluorescence was read. Data were corrected by Tht alone fluorescence, and normalized by the Tht intensity of the control solution, Aβ42+DMSO. Ratios and standard deviations were calculated as described in the Data Analysis section.

[2] = test system: sLucAβ; experiment: Effect of small molecule aggregation inhibitors on secreted reporter in inducible cell lines; type: cell-based; details: 1 μM compound, 24 hours
Method: (§2) 293T FlipInTrex (Invitrogen) cells. 293T FlipInTrex cells were grown as described above, using Tet Approved Fetal Bovine Serum (Clontech) and supplementing the medium with Zeocin 100 μg/mL (Invitrogen) and Blasticidin 15 μg/ml (InVivoGen, San Diego, USA). Zeocin selects for the lacZeo inserted into FRT sites in the genome, and Blasticidin selects for Tet repressor expression. For the generation of isogenic stable doxycycline inducible cell lines, cells were co-transfected overnight using Lipofectamine 2000 with the pcDNA5/FRT/TO vectors containing the fusion proteins-IRES-(NLS)3EGFP cassettes, and the pOGG-Flp recombinase plasmid (Invitrogen) at a ratio pcDNA/pOGG of 1:9. On day 2, cells were replated at −25% confluency, and selection for recombined clones was started by supplementing the medium with 75 μg/ml Hygromycin (InvivoGen) and Zeocin 100 μg/mL. Medium was exchanged every 2-3 days until colonies appeared. Cells were adapted to cell culture media containing 5% Tet approved Fetal Bovine Serum (Clontech), and 5% Serum Replacement 3 (Sigma). […] Expression of the chimeric reporter proteins was induced by addition of 0.75 μg/mL Doxycycline (Sigma-Aldrich) to cell culture medium, and tested for luciferase activity and western-blot (see below).
Effect of Small Molecule Inhibitors of Aβ42 aggregation in inducible cell lines. Congo Red, Rosmarinic acid, Quercetin, scyllo-inositol, and (−)-Epigallocatechin gallate (EGCG) were purchased from Sigma-Aldrich, and dissolved in DMSO. Cells were plated in 96-well plates and allowed to attach overnight. Cell medium without antibiotics was prepared containing 2× of the final compound concentration (1 μM) and 2× of final doxycycline concentration (0.75 μgr/ml) and diluted to 1× with media in the well. Control cells were treated with medium containing the same volume of DMSO. 8 wells were treated per condition. After 24 hours, 4 wells were harvested for luciferase assays, and 4 wells were used for cell survival assays.
sLuc Metridia activity. sLuc Metridia activity was measured using the same plates and instrument described above. Metridia reagent was prepared as described in (G. A. Stepanyuk et al., 2008, Protein Expr Purif 61, 142). Coelenterazine, native (Biosynth AG, Staad, Switzerland) was brought up at 1.43 mM in Methanol acidified with 1N HCl and diluted to 7.2 μM in 20 mM Tris-HCl 0.3M NaCl pH7.5 (Sigma-Aldrich). 20 μl of cell medium were transferred to white 96-well plates, 50 μl of reagent was injected, and every well was read for 5 s followed by a 3s delay. sLuciferase activity is measured in Relative Luminiscence Units (RLU).
(§3) Cell survival was measured using Cell titer Blue kit (Promega). […] After 1 hour incubation at 37° C., fluorescence was recorded in a Spectramax M5 plate reader, using excitation at 560 nm and emission at 590 nm in Relative Fluorescence Units (RFU).
(§4) Effect of small molecule inhibitors of Aβ42 in the inducible cell lines. The ratio luciferase activity/cell survival (Rsmall molecule) was calculated as shown in eq. […] Four technical replicates were measured per molecule for each test. Standard deviation was calculated using eq. […]
(§5) Comparing the Fold inhibition ratio of a given molecule in the Aβ42 and SH3 sensors allows the identification of molecules that change the ratios by mechanisms non-specific to aggregation such as toxicity or interference with luciferase activity. […] Standard errors were calculated using Error propagation theory. […]

[3] = test system: cLucAβ; experiment: Effect of small molecule aggregation inhibitors on cytoplasmic reporter in inducible cell lines; type: cell-based; details: 1 μM compound, 24 hours
Method: as §2
Effect of Small Molecule Inhibitors of Aβ42 aggregation in inducible cell lines. Congo Red, Rosmarinic acid, Quercetin, scyllo-inositol, and (−)-Epigallocatechin gallate (EGCG) were purchased from Sigma-Aldrich, and dissolved in DMSO. Cells were plated in 96-well plates and allowed to attach overnight. […]
cLuciferase Firefly activity. […] 20 μl of cellular lysate were transferred to white 96-well plates (Corning), 100 μl of luciferase reagent were injected, and every well was read for 5 s followed by 3 s delay to minimize cross-talk between wells using a Modulus Microplate Multimode Reader (Turner Biosystems Inc., Sunnyvale, Calif., USA). cLuciferase activity is measured in Relative Luminiscence Units (RLU).
as §3, §4, §5

[4] = test system: cytoplasmic and secreted reporters; experiment: Thapsigargin effect on activity of cytoplasmic and secreted reporters in inducible 293FlpInTrex cell lines; type: cell-based; details: 24 hours, different concentrations
Method: FIG. 16: Changes in proteostasis pathways 96 hours postinduction (A) relative mRNA levels of cells expressing cLucAβ or sLucAβ versus cLucSH3 or sLucSH3 measured by qPCR; (B) Protein expression analysed by Western blot. (C) Activity of cytoplasmic and secreted reporters normalized by cell survival in the presence of different concentrations of Thapsigargin compared to solvent alone. Data are means±s.d. Experiments were carried out using doxycyline inducible 293FlpInTrex cell lines expressing the aggregation sensors.
293T FlipInTrex (Invitrogen) cells. 293T FlipInTrex cells were grown as described above, using Tet Approved Fetal Bovine Serum (Clontech) and supplementing the medium with Zeocin 100 μg/mL (Invitrogen) and Blasticidin 15 μg/ml (InVivoGen, San Diego, USA). Zeocin selects for the lacZeo inserted into FRT sites in the genome, and Blasticidin selects for Tet repressor expression. […]
as §3

[5] = In vitro Aβ42 aggregation kinetics by Thioflavin T fluorescence; type: physicochemical; details: 25 μM in PBS, 30° C., ThT
Method: as §1
In vitro Aβ42 kinetic experiment. 25 μM Aβ42 in PBS was incubated at 30° C. Aliquots were withdrawn at different time points, and Tht binding was measured in triplicates.

T1 sequence (P05067 672-713): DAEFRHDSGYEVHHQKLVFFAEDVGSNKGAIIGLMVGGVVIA

Compound	effect on sLucAβ activity compared to solvent alone [2]	effect on cLucAβ activity compared to solvent alone [3]	also measured
Nc1c(/N=N/c2ccc(-c3ccc(/N=N/c4cc(S(=O)(=O)O)c5ccccc5c4N)cc3)cc2)cc(S(=O)(=O)O)c2ccccc12 [Congo Red]	did not increase the activity	–	inhibition of in vitro aggregation of synthetic Aβ42 by ThT fluorescence [1]: potently inhibited
O=c1c(O)c(-c2ccc(O)c(O)c2)oc2cc(O)cc(O)c12 [Quercetin]	significantly increased activity	no effect	–
C/C=C(/C)C(=O)O[C@H]1C(C)=C2[C@H]([C@@H]1OC(=O)CCCCCCC)[C@@](C)(OC(C)=O)C[C@H](OC(=O)CCC)[C@@]1(O)[C@H]2OC(=O)[C@@]1(C)O [TG, Thapsigargin]	–	–	effect on aggregation sensor activity normalized by cell survival [4]: increase of only sAβ activity in a TG dose-dependent manner
(−)-Epigallocatechin gallate [EGCG]	significantly increased activity	no effect	–
synthetic Aβ peptide: synthetic Aβ42 peptide (Bachem) used for in vitro aggregation	–	–	exponential phase of in vitro aggregation [5]: 6 to 24 h; plateau of in vitro aggregation [5]: 24 to 72 h
O=C(/C=C/c1ccc(O)c(O)c1)O[C@H](Cc1ccc(O)c(O)c1)C(=O)O [Rosmarinic acid]	significantly increased activity	no effect	–
O[C@H]1[C@H](O)[C@@H](O)[C@H](O)[C@@H](O)[C@@H]1O [Scilloinositol, scyllo-inositol]	significantly increased activity	no effect	–
